Where two headings read alike, the source gives them in different places.
Columns and labels:
[1] = test system: HLA-DRα class II promoter; experiment: Transient transfection CAT assay, HLA-DRα class II promoter chimeras in FRTL-5 cells; type: cell-based
Excerpt: Construction of the HLA-DR promoter constructs has also been described as have been their characteristics (Reimold A M, et al., ibid (1993)). Additional CAT constructs were constructed by PCR, using the HLA-DRα-CAT chimera containing −176 to +45 of 5′-flanking region as template and various primers (Montani V. et al., ibid (1998a,b)). For example, a plasmid containing −38 to +45 bp of the 5′-flanking region of HLA-DRα was constructed with the following primers: a 5′ primer with a 5′ Sph I restriction site, 5′-[…]-3′ and a 3′ primer, 5′-[…]-3′, with an Xba I restriction site (Montani V., et al., ibid (1998a,b)). The PCR products were purified by phenol-chloroform extraction, digested with Xba I and Sph I, purified from a 2% agarose gel with Jet Sorb (Genomed, Frederick, Md.), dephosphorylated with calf intestinal alkaline phosphatase (New England Biolabs, Beverly, Mass.), and religated (DNA ligation kit, Takara Biochemical, Inc., Berkeley, Calif.) into the pCAT-Basic Vector (Promega, Madison, Wis.) at the Sph I and Xba I sites as described (Reimold AM, et al., ibid (1993); Montani V., et al., ibid (1998a,b)).
To measure the promoter activity of MHC class II promoter constructs, transient transfections in FRTL-5 cells were performed, using one of the following procedures (Montani V., et al., ibid (1998a, b)). In one, FRTL-5 cells were cultivated in 6H medium to approximately 80% confluency, harvested, washed, and resuspended (1.5×10^7 cells/ml) in 0.85 ml electroporation buffer (272 mM sucrose, 7 mM sodium phosphate buffer pH 7.4, and 1 mM MgCl2). Plasmid DNA was added, 20 μg of the CAT chimera together with 2 μg pRSV-luciferase which is used to measure the efficiency of transfection. Cells were pulsed (330 V; capacitance 25 μfarad), plated (6×10^6 cells/10 cm dish), and cultured in 6H medium plus 5% calf serum supplemented or not with γ-IFN. At the times noted, cells were harvested for CAT and luciferase assays. The second procedure differed as follows. FRTL-5 cells were grown to 80% confluency in 6H medium, then maintained 6 days in 5H medium plus 5% calf serum. Cells were returned to 6H medium for 12 hours, transfected as described above, and maintained in 6H medium plus 5% calf serum for twelve hours. The medium was then changed to fresh 5H medium with 5% calf serum supplemented or not with γ-IFN. […] CAT activity was measured as described above and values were normalized to luciferase activity measured using the Promega (Madison, Wis.) assay system.
To test the effect of MMI, MMI derivatives or tautomeric cyclic thiones on γ-IFN-increased class II expression in FRTL-5 thyroid cells, the following procedure was used. Transient transfections with the −137 bp or −176 bp DRα-CAT chimeras were performed as described and treated with 100 U/ml γ-IFN for the noted times starting 12 hours after transfection. […]
In this experiment, like previous experiments, transient transfections were performed in FRTL-5 cells grown to 80% confluency in 6H medium, maintained 6 days in SH medium, and returned to 6H medium for 12 h before transfection as described. Twelve hours later, the medium was changed to fresh 5H medium, supplemented or not with 100 U/ml γ-IFN and/or 5 mM MMI. CAT activity was measured 48 h thereafter. […] Results are the mean ±SD of 3 separate experiments.

[2] = test system: MHC class II antigen expression; experiment: Flow cytometry of IFN-increased class II antigen expression in FRTL-5 cells; type: cell-based, rat; settings: for Concentration to inhibit IFN-increased antigen expression, Class II: 100 U/ml γ-interferon, 6H medium (TSH), 40 hours
Description: […] 13 and 14. Cells were stained with a fluorescein isothiocyanate conjugated class II-specific monoclonal antibody to RT1.B (clone OX-6, Sera Labs, UK) for 60 min at 4° C., washed twice with Dulbecco's phosphate buffered saline, and subjected to laser flow cytometry.
In this experiment 10^6 cells were incubated with MHC class II or MHC class I-specific antibodies as described (Montani, V., et al., ibid (1998b); Saji, M., et al., ibid (1992a); Balducci-Silano, P. L., et al., Endocrinology 139:2309-2313 (1998)). After 30 min on ice, cells were washed with phosphate buffered saline at pH 7.4 and incubated for 30 min with fluorescein-isothiocyanate (FITC)-conjugated antibodies then analyzed by flow cytometry on a FACScan Cytometer using CellQuest software (Becton Dickinson).
The concentration needed to achieve suppression of the interferon induced class I or class II surface expression was determined by testing different concentrations of the compounds (Table 18). Like all other assays, the order of effectiveness was compound 10>11>7 or 8>2>MMI>3.

[3] = FRTL-5, 10 μM, 100 U/ml γ-interferon, 6H medium, read-out: % inhibition of IFN-increased p(−137)CAT class II promoter activity
[4] = FRTL-5, 100 μM, 100 U/ml γ-interferon, 6H medium, read-out: % inhibition of IFN-increased p(−137)CAT class II promoter activity
[5] = FRTL-5, 0.5 mM, 100 U/ml γ-interferon, 6H medium, read-out: % inhibition of IFN-increased p(−137)CAT class II promoter activity
[6] = FRTL-5, 5 mM, 100 U/ml γ-interferon, 6H medium, read-out: % inhibition of IFN-increased p(−137)CAT class II promoter activity
[7] = 10 μM, 100 U/ml γ-interferon, 6H medium
[8] = 100 μM, 100 U/ml γ-interferon, 6H medium
[9] = 0.5 mM, 100 U/ml γ-interferon, 6H medium
[10] = 5 mM, 100 U/ml γ-interferon, 6H medium
[11] = FRTL-5, read-out: % inhibition of IFN-increased p(−137)CAT class II promoter activity

Cn1ccnc1S [Compound 1, 1-Methylimidazole-2-thiol]
inhibition at 10 µM [1, 3]: 0% | inhibition at 100 µM [1, 4]: 0% | inhibition at 500 µM [1, 5]: 44 ± 6% | inhibition at 5000 µM [1, 6]: 87 ± 9% | endogenous class II antigen expression on the cell surface (flow cytometry, FIG. 12) ([2]; 5 mM MMI with 100 U/ml γ-IFN, 48 hours): decreased endogenous class II antigen expression | Concentration to inhibit IFN-increased antigen expression, Class II [2]: 5000 µM

Cc1ncc([N+](=O)[O-])n1CCO [Compound 2, 2-Methyl-5-nitro-1-imidazole ethanol]
inhibition at 10 µM [1, 3]: 0% | inhibition at 100 µM [1, 4]: 0% | inhibition at 500 µM [1, 5]: 55 ± 10% | inhibition at 5000 µM [1, 6]: 80 ± 4% | Concentration to inhibit IFN-increased antigen expression, Class II [2]: 1500 ± 1000 µM

Sc1ncc[nH]1 [Compound 3, 2-Mercaptoimidazole]
% inhibition of IFN-increased p(−137)CAT class II promoter activity [1, 7]: None | % inhibition of IFN-increased p(−137)CAT class II promoter activity [1, 8]: None | % inhibition of IFN-increased p(−137)CAT class II promoter activity [1, 9]: None | % inhibition of IFN-increased p(−137)CAT class II promoter activity [1, 10]: None | Concentration to inhibit IFN-increased antigen expression, Class II [2]: No Inhibition

Sc1nc2ccccc2[nH]1 [Compound 4, 2-Mercaptobenzimidazole]
inhibition at 10 µM [1, 11]: 0% | inhibition at 100 µM [1, 11]: 0% | inhibition at 500 µM [1, 11]: 29 ± 12% | inhibition at 5000 µM [1, 11]: 73 ± 14%

O=[N+]([O-])c1ccc2[nH]c(S)nc2c1 [Compound 5, 2-Mercapto-5-nitrobenzimidazole]
inhibition at 5000 µM [1, 6]: 39 ± 13%

Cc1ccc2[nH]c(S)nc2c1 [Compound 6, 2-Mercapto-5-methylbenzimidazole]
inhibition at 5000 µM [1, 6]: 44 ± 8%

CSc1nccn1C [Compound 7, S-Methylmethimazole]
inhibition at 10 µM [1, 3]: 0% | inhibition at 100 µM [1, 4]: 20 ± 15% | inhibition at 500 µM [1, 5]: 75 ± 6% | inhibition at 5000 µM [1, 6]: 84 ± 15% | Concentration to inhibit IFN-increased antigen expression, Class II [2]: 405 ± 15 µM

Cn1ccn(C)c1=S [Compound 8, N-Methylmethimazole]
% inhibition of IFN-increased p(−137)CAT class II promoter activity [1, 7]: 0% | % inhibition of IFN-increased p(−137)CAT class II promoter activity [1, 8]: 43 ± 9% | % inhibition of IFN-increased p(−137)CAT class II promoter activity [1, 9]: 79 ± 11% | % inhibition of IFN-increased p(−137)CAT class II promoter activity [1, 10]: 88 ± 10% | Concentration to inhibit IFN-increased antigen expression, Class II [2]: 439 ± 93 µM

Cc1cnc(S)n1C [Compound 9, 5-Methylmethimazole]
inhibition at 10 µM [1, 3]: 0% | inhibition at 100 µM [1, 4]: 0% | inhibition at 500 µM [1, 5]: 14 ± 12% | inhibition at 5000 µM [1, 6]: 44 ± 18%

Cn1c(-c2ccccc2)cnc1S [Compound 10, 5-Phenylmethimazole]
inhibition at 10 µM [1, 3]: 45 ± 17% | inhibition at 100 µM [1, 4]: 88 ± 15% | inhibition at 500 µM [1, 5]: 95 ± 5% | Concentration to inhibit IFN-increased antigen expression, Class II [2]: 54 ± 11 µM

Reference: patent US6365616B1, “Methimazole derivatives and tautomeric cyclic thiones to treat autoimmune diseases” (Sentron Medical, Inc., priority 1998, dated 2002)
